Source: PMC12066687 (Frontiers in Immunology, 2025)
Where two headings read alike, the source gives them in different places.

What was measured:
Vero cells = conditions: for cytotoxicity: African green monkey
VSV-EBOV-GP = test: microbe, parasite or virus in culture; format: cell-based, Ebola virus (EBOV/H.sap-tc/COD/76/Yambuku-Mayinga); conditions: for inhibition at 0.2 µM: read-out: Inhibition% (200nM)
in vitro = conditions: African green monkey
EBOV-GP = EBOV-GP (Zaire ebolavirus, UniProt Q05320); test: biochemical; format: binding, Zaire EBOV (strain Mayinga-76)
VSV-LASV-GP = format: cell-based, Lassa virus (LASV) (Josiah)
VSV-G = format: cell-based, vesicular stomatitis virus

Sequence of EBOV-GP (Q05320 33-650 limits assumed): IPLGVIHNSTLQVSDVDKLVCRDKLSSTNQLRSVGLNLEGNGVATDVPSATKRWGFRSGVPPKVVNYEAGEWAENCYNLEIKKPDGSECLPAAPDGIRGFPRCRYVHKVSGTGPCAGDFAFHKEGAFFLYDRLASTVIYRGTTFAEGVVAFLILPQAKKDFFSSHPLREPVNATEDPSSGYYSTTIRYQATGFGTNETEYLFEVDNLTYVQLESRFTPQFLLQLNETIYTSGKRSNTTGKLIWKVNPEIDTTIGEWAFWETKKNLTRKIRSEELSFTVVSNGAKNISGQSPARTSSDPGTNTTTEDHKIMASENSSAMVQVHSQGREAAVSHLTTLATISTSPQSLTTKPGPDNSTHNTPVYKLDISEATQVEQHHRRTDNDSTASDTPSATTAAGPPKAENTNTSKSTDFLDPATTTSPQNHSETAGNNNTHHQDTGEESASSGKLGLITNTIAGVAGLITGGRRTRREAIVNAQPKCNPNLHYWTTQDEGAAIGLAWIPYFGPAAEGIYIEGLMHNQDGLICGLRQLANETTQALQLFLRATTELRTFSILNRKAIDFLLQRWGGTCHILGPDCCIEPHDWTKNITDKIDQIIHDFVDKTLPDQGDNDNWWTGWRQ

For `CC/C(=C(\c1ccccc1)c1ccc(OCCN(C)C)cc1)c1cccc(N=S(=O)(F)F)c1` [Compound 1], the cytotoxicity (Vero cells) was “did not exhibit cytotoxicity up to 10 µM” and the EC50 (VSV-EBOV-GP; Zaire ebolavirus, Vero, 16 h) was 380 nM.

Compound `CC/C(=C(\c1ccccc1)c1ccc(OCCN(C)C)cc1)c1cccc(NS(=O)(=O)NC2CCCOC2)c1` (centres unmarked) [Compound 2] has an EC50 (VSV-EBOV-GP; Zaire ebolavirus, Vero, 16 h) of 470 nM.

`CC/C(=C(\c1ccccc1)c1ccc(OCCN(C)C)cc1)c1cccc(NS(=O)(=O)NCc2ncon2)c1` [Compound 3] gave an EC50 (VSV-EBOV-GP; Zaire ebolavirus, Vero, 16 h) of 550 nM.

For `CC/C(=C(\c1ccccc1)c1ccc(OCCN(C)C)cc1)c1cccc(NS(=O)(=O)N[C@@H]2CCOC2)c1` [Compound 4R], the “SI (Selectivity index = CC50/EC50)” value (Vero cells) was 43, the cytotoxicity (Vero cells) was “did not show significant cytotoxicity below 10 µM” and the EC50 (VSV-EBOV-GP; Zaire ebolavirus, Vero) was 351 nM. It also gave a CC50 (in vitro) of 15000 nM and a Kd (EBOV-GP) of 6400 nM.

For `CC/C(=C(\c1ccccc1)c1ccc(OCCN(C)C)cc1)c1cccc(NS(=O)(=O)N[C@H]2CCOC2)c1` [Compound 4S], the “inhibition of VSV-LASV-GP” value (VSV-LASV-GP) was “selective inhibition of VSV-EBOV-GP but not VSV-G or VSV-LASV-GP”, the “inhibition of VLPs displaying VSV-G” value (VSV-G) was “selective inhibition of VSV-EBOV-GP but not VSV-G or VSV-LASV-GP” and the “SI (Selectivity index = CC50/EC50)” value (Vero cells) was 150. The cytotoxicity (Vero cells) was “did not show significant cytotoxicity below 10 µM”, the EC50 (VSV-EBOV-GP; Zaire ebolavirus, Vero) was 92 nM and the CC50 (in vitro) was 14000 nM. For the same compound, the Kd (EBOV-GP) was 630 nM and the “affinity enhancement vs tamoxifen” value (EBOV-GP) was 50 fold.

Compound `CC/C(=C(\c1ccccc1)c1ccc(OCCN(C)C)cc1)c1cccc(NS(=O)(=O)NC2CCOC2)c1` (centres unmarked) [Compound 4] has an EC50 (VSV-EBOV-GP) of 240 nM and an EC50 (VSV-EBOV-GP; Zaire ebolavirus, Vero) of 241 nM.

For `CC/C(=C(\c1ccccc1)c1ccc(OCCN(C)C)cc1)c1cccc(NS(=O)(=O)NC2COC2)c1` [Compound 5], the “SI (Selectivity index = CC50/EC50)” value (Vero cells) was 44, the EC50 (VSV-EBOV-GP; Zaire ebolavirus, Vero) was 156 nM and the CC50 (in vitro) was 6800 nM.

With `CC/C(=C(\c1ccccc1)c1ccc(OCCN(C)C)cc1)c1cccc(NS(=O)(=O)NC2COCC2C)c1` (centres unmarked) [Compound 6] the “SI (Selectivity index = CC50/EC50)” value (Vero cells) was 70, the EC50 (VSV-EBOV-GP; Zaire ebolavirus, Vero) was 201 nM and the CC50 (in vitro) was 14000 nM.

For `CC/C(=C(\c1ccccc1)c1ccc(OCCN(C)C)cc1)c1cccc(NS(=O)(=O)NC2(C)CCOC2)c1` (centres unmarked) [Compound 7], the “SI (Selectivity index = CC50/EC50)” value (Vero cells) was 31, the EC50 (VSV-EBOV-GP; Zaire ebolavirus, Vero) was 268 nM and the CC50 (in vitro) was 8400 nM.

In the case of `CC/C(=C(\c1ccccc1)c1ccc(OCCN(C)C)cc1)c1cccc(NS(=O)(=O)NC2CCN(C)C2)c1` (centres unmarked) [Compound 8], the “SI (Selectivity index = CC50/EC50)” value (Vero cells) is reported as 14, the EC50 (VSV-EBOV-GP; Zaire ebolavirus, Vero) is reported as 145 nM and the CC50 (in vitro) is reported as 2000 nM.

In the case of `CC/C(=C(\c1ccccc1)c1ccc(OCCN(C)C)cc1)c1cccc(NS(=O)(=O)NC2CCN(C(C)C)C2)c1` (centres unmarked) [Compound 9], the “SI (Selectivity index = CC50/EC50)” value (Vero cells) is reported as 4.3, the EC50 (VSV-EBOV-GP; Zaire ebolavirus, Vero) is reported as 790 nM and the CC50 (in vitro) is reported as 3400 nM.

With `CC/C(=C(\c1ccccc1)c1ccc(OCCN(C)C)cc1)c1cccc(NS(=O)(=O)N[C@H]2CCN(C)C2)c1` [Compound 10] the “SI (Selectivity index = CC50/EC50)” value (Vero cells) was 4.5, the EC50 (VSV-EBOV-GP; Zaire ebolavirus, Vero) was 664 nM and the CC50 (in vitro) was 3000 nM.

With `CC/C(=C(\c1ccccc1)c1ccc(OCCN(C)C)cc1)c1cccc(NS(=O)(=O)N[C@@H]2CCN(C)C2)c1` [Compound 11] the “SI (Selectivity index = CC50/EC50)” value (Vero cells) was 6.3, the EC50 (VSV-EBOV-GP; Zaire ebolavirus, Vero) was 575 nM and the CC50 (in vitro) was 3600 nM.

With `CC/C(=C(\c1ccccc1)c1ccc(OCCN(C)C)cc1)c1cccc(NS(=O)(=O)NC2CCN(CC)C2)c1` (centres unmarked) [Compound 12] the “SI (Selectivity index = CC50/EC50)” value (Vero cells) was 4.8, the EC50 (VSV-EBOV-GP; Zaire ebolavirus, Vero) was 841 nM and the CC50 (in vitro) was 4000 nM.

With `CC/C(=C(\c1ccccc1)c1ccc(OCCN(C)C)cc1)c1cccc(NS(=O)(=O)N[C@H]2CCN(C(CC)CC)C2)c1` [Compound 13] the “SI (Selectivity index = CC50/EC50)” value (Vero cells) was 6.5, the EC50 (VSV-EBOV-GP; Zaire ebolavirus, Vero) was 813 nM and the CC50 (in vitro) was 5300 nM.

With `CCCN1CCC(NS(=O)(=O)Nc2cccc(/C(CC)=C(/c3ccccc3)c3ccc(OCCN(C)C)cc3)c2)C1` (centres unmarked) [Compound 14] the “SI (Selectivity index = CC50/EC50)” value (Vero cells) was 5.0, the EC50 (VSV-EBOV-GP; Zaire ebolavirus, Vero) was 618 nM and the CC50 (in vitro) was 3100 nM.

For `CC/C(=C(\c1ccccc1)c1ccc(OCCN(C)C)cc1)c1cccc(NS(=O)(=O)NC2CCN(CCCO)C2)c1` (centres unmarked) [Compound 15], the “SI (Selectivity index = CC50/EC50)” value (Vero cells) was 4.5, the EC50 (VSV-EBOV-GP; Zaire ebolavirus, Vero) was 1720 nM and the CC50 (in vitro) was 7700 nM.

Compound `CC/C(=C(\c1ccccc1)c1ccc(OCCN(C)C)cc1)c1ccc(NS(=O)(=O)NCc2ccn[nH]2)cc1` [Compound B02, CC/C(=C(\c1ccccc1)c1ccc(OCCN(C)C)cc1)c1ccc(NS(=O)(=O)NCc2ccn[nH]2)cc1] has an inhibition at 0.2 µM (VSV-EBOV-GP; Zaire ebolavirus, Vero) of 4.27%.

Compound `CC/C(=C(\c1ccccc1)c1ccc(OCCN(C)C)cc1)c1ccc(N=S(=O)(F)N(C)Cc2ccn[nH]2)cc1` (centres unmarked) [Compound C02, CC/C(=C(\c1ccccc1)c1ccc(OCCN(C)C)cc1)c1ccc(N=S(=O)(F)N(C)Cc2ccn[nH]2)cc1] has an inhibition at 0.2 µM (VSV-EBOV-GP; Zaire ebolavirus, Vero) of 2.05%.

Work on `CC/C(=C(\c1ccccc1)c1ccc(OCCN(C)C)cc1)c1ccc(NS(=O)(=O)NCc2n[nH]c(=O)[nH]2)cc1` [Compound D02, CC/C(=C(\c1ccccc1)c1ccc(OCCN(C)C)cc1)c1ccc(NS(=O)(=O)NCc2n[nH]c(=O)[nH]2)cc1] yielded an inhibition at 0.2 µM (VSV-EBOV-GP; Zaire ebolavirus, Vero) of -0.485%.

For `CC/C(=C(\c1ccccc1)c1ccc(OCCN(C)C)cc1)c1ccc(N=S(=O)(F)N(C)Cc2n[nH]c(=O)[nH]2)cc1` (centres unmarked) [Compound E02, CC/C(=C(\c1ccccc1)c1ccc(OCCN(C)C)cc1)c1ccc(N=S(=O)(F)N(C)Cc2n[nH]c(=O)[nH]2)cc1], the inhibition at 0.2 µM (VSV-EBOV-GP; Zaire ebolavirus, Vero) was 11%.

With `CC/C(=C(\c1ccccc1)c1ccc(OCCN(C)C)cc1)c1ccc(NS(=O)(=O)NC(C)c2n[nH]c(=O)[nH]2)cc1` (centres unmarked) [Compound F02, CC/C(=C(\c1ccccc1)c1ccc(OCCN(C)C)cc1)c1ccc(NS(=O)(=O)NC(C)c2n[nH]c(=O)[nH]2)cc1] the inhibition at 0.2 µM (VSV-EBOV-GP; Zaire ebolavirus, Vero) was 14.1%.

In the case of `CC/C(=C(\c1ccccc1)c1ccc(OCCN(C)C)cc1)c1ccccc1` [Tamoxifen, tamoxifen, reference compound], the “inhibition of VSV-LASV-GP” value (VSV-LASV-GP) is reported as “selective inhibition of VSV-EBOV-GP but not VSV-G or VSV-LASV-GP” and the “inhibition of VLPs displaying VSV-G” value (VSV-G) is reported as “selective inhibition of VSV-EBOV-GP but not VSV-G or VSV-LASV-GP”.
